Active and inactive are the calls of the source. The calls are words filed in the database; no cut-off is given here.
Tested on: Leishmania donovani
Test: Inhibition of 2 units of Leishmania donovani MHOM/IN/1978/UR6 DNA topoisomerase 1-mediated supercoiled pGEM4Z DNA relaxation at 5 to 10 uM preincubated for 10 mins prior to DNA addition by agarose gel electrophoresis

Compound: CC[C@@]1(O)C(=O)OCc2c1cc1n(c2=O)Cc2cc3ccccc3nc2-1
- Activity: Active

Reference: ChEMBL document CHEMBL1151672, “Amarogentin, a naturally occurring secoiridoid glycoside and a newly recognized inhibitor of topoisomerase I from Leishmania donovani” (J Nat Prod, 1996)
